Laboratory results published in publication PMC12052742, “Engineering a newly identified alcohol dehydrogenase from Sphingobium Sp. for efficient utilization of nicotinamide cofactors biomimetics” (Bioresources and Bioprocessing, 2025).

Assays:
[1] = test system: SpADH2; assay: Preliminary evaluation of NCB usage in oxidation of syringyl alcohol (HPLC); format: biochemical, Sphingobium sp. SYK-6; details: preliminary assay: 1a 1 mM, NCB 10 mM, pH 7.0, 30℃, 1 h
Description: Sphingobium sp. SYK-6 belongs to genus Sphingomonas, and a search in UniProtKB identified 19 ADHs from this strain, including 5 PQQ-dependent and the remaining NAD^+/NADP^+-dependent enzymes. Two sequences annotated as aryl-alcohol dehydrogenases (SLG_34580 and SLG_24930) (Table. S1) were selected for heterologous expression (Fig. S1) and named SpADH1 and SpADH2, respectively. Their ability to utilize NCBs was assessed by oxidation of syringyl alcohol (1a) to produce syringaldehyde (1b) (Fig. 1a).
Fig. 1 (a) Reaction scheme of SpADH2-catalyzed oxidation of syringyl alcohol. (b) Specific activity of SpADH2 toward four NCBs. The evaluation of NCBs usage by SpADH2 was carried out under following conditions: 50 mM PBS buffer (pH 7.0) and 30℃, with 1a (1 mM) as substrate and 4 typical NCBs (10 mM) as cofactor. A total of 0.1 mg/mL enzyme was added to a 200 µL reaction mixture, and was analyzed by HPLC after 1 h reaction
Reaction samples were analyzed using Agilent 1260 Infinity II LC system under reversed phase condition. Column: Agilent C18 column. Analytical conditions for 1a and 1b: mobile phase: 50% water: 50% acetonitrile. The retention time for standard product 1b was 3.27 min, under flow rate of 1 mL·min^− 1and temperature of 30°C (Fig. S4).

[2] = test system: SpADH2; assay: Cofactor spectrum of syringyl alcohol oxidation (HPLC specific activity), WT; format: biochemical, Sphingobium sp. SYK-6; details: 1a 5 mM, cofactor 7.5 mM, pH 7.5, 30℃; for utilization of the tsNCB by SpADH2 (in words) / activity of SpADH2 with the tsNCB as cofactor: 5 µg SpADH2, 1 h; for decrease in activity compared with NAD^+ as cofactor: 0.05 µg SpADH2
Description: Fig. 2 Cofactor spectrum of syringyl alcohol oxidation catalyzed by SpADH2. The darkness of the background color for each cofactor stands for the activity of SpADH2 utilizing various cofactors. (a) NAD(P) ^+ and NMN^+ are shown in purple background. (b) tsNCBs are shown in cyan background. The evaluation of cofactor spectrum of SpADH2 was carried out under following conditions: 50 mM PBS buffer (pH 7.5) and 30℃, with 1a (5 mM) as substrate and different cofactors (7.5 mM) as cofactor. For NAD(P)^+ and NMN^+, 0.05 µg SpADH2 was added, and for tsNCBs, 5 µg SpADH2 was added. The results were analyzed by HPLC after 1 h reaction
(§1) Specific activity of SpADH2 in cofactor spectrum study was determined by HPLC analysis. PBS (pH 7.5) buffer was pre-heated at 30°C for 15 min. For NAD(P)^+ and NMN^+, 0.05 µg SpADH2 was added to PBS buffer (100 µL). For tsNCBs, 5 µg SpADH2 was added. A final concentration of 7.5 mM cofactor was added to the reaction mixture. Finally, a final concentration of 5 mM substrate was added to start the reaction. The reactions were conducted at 30°C.
(§2) One unit of enzyme activity is defined as the amount of enzyme required to form 1 µmol 1b per minute at pH 7.5 and 30°C. Same reaction without cofactor was used as a blank control.

[3] = test system: SpADH2 variants (H43L, A290I, H43L/A290I); assay: Cofactor spectrum (HPLC specific activity), all variants together; format: biochemical, Sphingobium sp. SYK-6; details: 1a 5 mM, cofactor 7.5 mM, pH 7.5, 30℃
Description: (§3) Fig. 8 Cofactor spectrums of SpADH2 and its variants. The darkness of color for each cofactor stands for the activity. For each cofactor cube, top left: WT, top right: H43L, bottom left: A290I, bottom right: H43L/A290I. (a) Natural cofactors and NMN^+ are shown in purple. (b) tsNCBs are shown in cyan. The evaluation of cofactor spectrum was carried out under following conditions: 50 mM PBS buffer (pH 7.5) and 30℃, with 1a (5 mM) as substrate and different cofactors (7.5 mM) as cofactor. For NAD(P)^+ and NMN^+, 0.05 µg enzyme was added, and for tsNCBs, 5 µg enzyme was added. The results were analyzed by HPLC after 1 h reaction
as §1, §2

[4] = test system: SpADH2 variant A290I; assay: Cofactor spectrum (HPLC specific activity), variant A290I; format: biochemical, Sphingobium sp. SYK-6; details: 1a 5 mM, cofactor 7.5 mM, pH 7.5, 30℃, 5 µg enzyme
Description: as §3, §1, §2

[5] = test system: SpADH2; assay: Substrate spectrum (spectrophotometric specific activity, fluorescent probe); format: biochemical, Sphingobium sp. SYK-6; details: substrate 5 mM, 1 h; for specific activity of SpADH2 toward the substrate: cofactor NAD^+ 2 mM, 0.05 µg SpADH2, pH 7.5, 30℃; for substrate preference of SpADH2 (in words): cofactor p-BANA^+ 7.5 mM, 5 µg SpADH2, pH 7.5, 30℃
Description: Fig. 3 Substrate spectrum of SpADH2 utilizing (a) NAD^+ and (b) p-BANA^+. The darkness of the background color for each substrate stands for the activity of SpADH2 with NAD^+ (purple) or p-BANA^+ (cyan) as cofactor. The evaluation of substrate spectrum of SpADH2 was carried out under following conditions: 50 mM PBS buffer (pH 7.5) and 30℃, with 1a (5 mM) as substrate. For NAD^+(2 mM), 0.05 µg SpADH2 was added, and for p-BANA^+(7.5 mM), 5 µg SpADH2 was added. After 1 h, reactions were visualized by 0.2 mM florescent probes (2-[2-(1,4-dihydro-1-methyl-3-quinolinyl)ethenyl]-1,3,3-trimethyl-3H-indolium)
(§4) Specific activity of SpADH2 in substrate spectrum study was measured spectrophotometrically. PBS (pH 7.5) buffer was pre-heated at 30°C for 15 min. For NAD^+, 0.05 µg SpADH2 was added to the PBS buffer (100 µL), and a final concentration of 2 mM NAD^+ was added. For tsNCBs cofactor p-BANA^+, 5 µg SpADH2 and a final concentration of 7.5 mM p-BANA^+ was added. The mixture was carried out in a 96-well microplate, and a final concentration of 5 mM substrate was added to start the reaction. The microplate was incubated in 30°C for 1 h. Florescent probes (2-[2-(1,4-dihydro-1-methyl-3-quinolinyl)ethenyl]-1,3,3-trimethyl-3H-indolium) in a final concentration of 0.2 mM (100 µL) was added (Scheme S1), and the microplate was placed in a microplate reader immediately for measurement under 537 nm (Fomin et al. [2016]).
One unit of enzyme activity is defined as the amount of enzyme required to form 1 µmol of reduced florescent probes per minute at pH 7.5 and 30°C. Each reaction was repeated in triplet. Same reaction without substrate was used as a blank control. The molar absorbance coefficient (ε) was detected as […] with NADH as the reduced cofactor and 60,801 µM^− 1·cm^− 1 with p-BANAH as the reduced cofactor.

[6] = test system: NC(=O)c1ccc[n+]([C@@H]2O[C@H](COP(=O)([O-])OP(=O)(O)OC[C@H]3O[C@@H](n4cnc5c(N)ncnc54)[C@H](O)[C@@H]3O)[C@@H](O)[C@H]2O)c1; assay: Cofactor kinetic assay, WT; format: biochemical, Sphingobium sp. SYK-6; details: other: WT, cofactor (= label) varied, 1a fixed at 5 mM, pH 7.5, 30°C
Description: as §4
(§5) Kinetic analysis of SpADH2 and its variants were carried out following Michaelis-Menten equation or Michaelis-Menten excess substrate inhibition equation. For of the substrate kinetic assays, concentrations of cofactors were fixed at 5 mM for NAD^+ and 7.5 mM for p-BANA^+. For cofactor kinetic assays, the concentration of 1a was fixed at 5 mM.
(§6) Specific activity was determined spectrophotometrically as above except that gradient 1a (0−20 mM) or cofactor (0−35 mM) concentrations were applied.
(§7) Cofactor specificity ratio (CSR) represents the ratio of catalytic efficiency of p-BANA^+ to NAD^+ for each enzyme, and relative specificity (RS) stands for the CSR ratio of variants to WT (King et al. [2020]).

[7] = target: T1, SpADH2 WT (Sphingobium sp. SYK-6, UniProt G2IIZ8); assay: Cofactor kinetic assay, WT; format: biochemical; details: cofactor (= label) varied, 1a fixed at 5 mM
T1 sequence (G2IIZ8 1-372): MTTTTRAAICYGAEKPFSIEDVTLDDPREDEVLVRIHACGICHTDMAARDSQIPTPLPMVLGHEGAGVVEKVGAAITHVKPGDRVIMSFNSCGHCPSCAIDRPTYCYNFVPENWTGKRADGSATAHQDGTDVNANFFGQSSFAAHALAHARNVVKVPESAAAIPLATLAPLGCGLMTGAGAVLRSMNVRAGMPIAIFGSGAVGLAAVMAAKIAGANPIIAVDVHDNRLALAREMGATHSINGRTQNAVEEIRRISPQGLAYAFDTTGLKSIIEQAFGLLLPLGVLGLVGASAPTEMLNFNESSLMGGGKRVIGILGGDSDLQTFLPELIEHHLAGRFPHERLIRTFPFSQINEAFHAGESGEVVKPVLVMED
Description: as §4, §5, §6, §7

[8] = test system: SpADH2 variant H43L; assay: Cofactor kinetic assay, H43L; format: biochemical, Sphingobium sp. SYK-6; details: cofactor (= label) varied, 1a fixed at 5 mM
Description: as §4, §5, §6, §7

[9] = test system: SpADH2 variant A290I; assay: Substrate kinetic assay, A290I; format: biochemical, Sphingobium sp. SYK-6
Description: as §4, §5, §6, §7

[10] = test system: SpADH2 variant H43L/A290I; assay: Cofactor kinetic assay, H43L/A290I; format: biochemical, Sphingobium sp. SYK-6; details: cofactor (= label) varied, 1a fixed at 5 mM
Description: as §4, §5, §6, §7

[11] = test system: SpADH2 variant H43L/A290I; assay: Substrate kinetic assay, H43L/A290I; format: biochemical, Sphingobium sp. SYK-6
Description: as §4, §5, §6, §7

[12] = test system: SpADH2 variant H43L; assay: Substrate kinetic assay, H43L; format: biochemical, Sphingobium sp. SYK-6; details: 1a varied, cofactor (= label) fixed: 5 mM NAD^+ or 7.5 mM p-BANA^+
Description: as §4, §5, §6, §7

[13] = target: T1, SpADH2 WT; assay: Substrate kinetic assay, WT; format: biochemical; details: 1a varied, cofactor (= label) fixed: 5 mM NAD^+ or 7.5 mM p-BANA^+
Description: as §4, §5, §6, §7

[14] = test system: SpADH2 variant A290I; assay: Cofactor kinetic assay, A290I; format: biochemical, Sphingobium sp. SYK-6
Description: as §4, §5, §6, §7

[15] = 1a varied, cofactor (= label) fixed: 5 mM NAD^+ or 7.5 mM p-BANA^+
[16] = substrate kinetics, cofactor = label

Compound: NC(=O)c1ccc[n+](Cc2ccccc2)c1 [BNA^+, 1-benzyl-3-carbamoylpyridin-1-ium]
- utilization of the NCB by SpADH2 (in words) [1]: Appreciable activity

Compound: Cc1ccccc1C[n+]1cccc(C(N)=O)c1 [o-BMNA^+, ortho-3-carbamoyl-1-(2-methylbenzyl)pyridin-1-ium]
- utilization of the tsNCB by SpADH2 (in words) [2]: No detectable activity

Compound: NC(=O)c1ccc[n+]([C@@H]2O[C@H](COP(=O)(O)OP(=O)([O-])OC[C@H]3O[C@@H](n4cnc5c(N)ncnc54)[C@H](OP(=O)(O)O)[C@@H]3O)[C@@H](O)[C@H]2O)c1 [NADP^+, reference compound]
- catalytic activity of all variants with the cofactor (in words) [3]: relatively lower catalytic activity
- decrease in activity compared with NAD^+ as cofactor [2]: roughly 50%

Compound: NC(=O)c1ccc[n+](Cc2cccc(C(=O)O)c2)c1 [m-BANA^+, meta-3-carbamoyl-1-(3-carboxybenzyl)pyridin-1-ium]
- catalytic activity of all variants with the cofactor (in words) [3]: highest activity
- catalytic activity with the tsNCB as cofactor ([4]; 1 h): 118.11 U/g

Compound: OCc1ccccc1 [benzyl alcohol]
- specific activity of SpADH2 toward the substrate [5]: 4.71 U/mg
- substrate preference of SpADH2 (in words) [5]: No significant preference

Compound: Cc1ccc(C[n+]2cccc(C(N)=O)c2)cc1 [p-BMNA^+, para-3-carbamoyl-1-(4-methylbenzyl)pyridin-1-ium]
- utilization of the tsNCB by SpADH2 (in words) [2]: No detectable activity

Compound: NC(=O)c1ccc[n+](Cc2ccccc2Br)c1 [o-BBrNA^+]
- activity of SpADH2 with the tsNCB as cofactor [2]: 1.3 U/g

Compound: NC(=O)c1ccc[n+]([C@@H]2O[C@H](COP(=O)([O-])O)[C@@H](O)[C@H]2O)c1 [NMN^+, nicotinamide mononucleotide, reference compound]
- catalytic activity of all variants with the cofactor (in words) [3]: relatively lower catalytic activity
- decrease in activity compared with NAD^+ as cofactor [2]: roughly 50%

Compound: NC(=O)c1ccc[n+](Cc2ccccc2[N+](=O)[O-])c1 [o-BNNA^+]
- activity of SpADH2 with the tsNCB as cofactor [2]: 1.92 U/g
- utilization of the tsNCB (in words) [4]: capable of utilizing

Compound: COc1cc(CO)cc(OC)c1O [syringyl alcohol]
- substrate preference of SpADH2 (in words) [5]: optimal substrate

Compound: NC(=O)c1ccc[n+](Cc2ccc([N+](=O)[O-])cc2)c1 [p-BNNA^+]
- activity of SpADH2 with the tsNCB as cofactor [2]: 2.25 U/g
- utilization of the tsNCB (in words) [4]: capable of utilizing

Compound: OCc1ccsc1 [3-thiophenemethanol]
- specific activity of SpADH2 toward the substrate [5]: 4.78 U/mg
- substrate preference of SpADH2 (in words) [5]: No significant preference

Compound: NC(=O)c1ccc[n+](Cc2cccc([N+](=O)[O-])c2)c1 [m-BNNA^+, meta-3-carbamoyl-1-(3-nitrobenzyl)pyridin-1-ium]
- utilization of the tsNCB by SpADH2 (in words) [2]: not effectively utilized
- utilization of the tsNCB (in words) [4]: capable of utilizing

Compound: SpADH2 WT (Sphingobium sp. SYK-6)
- Km [6]: 28 ± 3 µM

Compound: NC(=O)c1ccc[n+]([C@@H]2O[C@H](COP(=O)([O-])OP(=O)(O)OC[C@H]3O[C@@H](n4cnc5c(N)ncnc54)[C@H](O)[C@@H]3O)[C@@H](O)[C@H]2O)c1 [NAD^+, reference compound]
- kcat [7]: 58.7 ± 1.5 min^− 1
- catalytic activity of all variants with the cofactor (in words) [3]: relatively lower catalytic activity
- specific activity of SpADH2 with the cofactor ([2]; 0.05 µg SpADH2, 1 h): 4.40 U/mg
- kcat [8]: 57.8 ± 1.2 min^− 1
- Km ([8]; pH 7.5, 30°C): 99 ± 8 µM
- kcat [9, 15]: 41.4 ± 1.4 min^− 1
- substrate inhibition (in words) [9, 16]: no substrate inhibition was observed
- kcat [10]: 12.6 ± 0.2 min^− 1
- Km ([10]; pH 7.5, 30°C): 365 ± 25 µM
- kcat [11, 15]: 18.9 ± 0.2 min^− 1
- fold improvement in substrate inhibition (Ki) vs WT [11, 16]: up to 9 fold
- kcat [12]: 102 ± 2.3 min^− 1
- kcat [13]: 134 ± 2.9 min^− 1
- kcat ([14]; cofactor (= label) varied, 1a fixed at 5 mM): 28.3 ± 0.6 min^− 1
- Km ([14]; cofactor (= label) varied, 1a fixed at 5 mM, pH 7.5, 30°C): 9 ± 1 µM
- fold higher catalytic efficiency (kcat/Km) than WT ([14]; cofactor kinetics, cofactor = label): 1.5 fold
